The source made the active and inactive calls.
Experiments:
Paired box protein Pax-8 = Paired box protein Pax-8 (Homo sapiens, UniProt Q06710); experiment: inhibitors of PAX8-driven TPO luciferase reporter, dose response, RMG-I cells, cherry-pick (AID 687027); assay type: functional, cell-based;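 note: luciferase reporter driven by Pax8 target thyroperoxidase promoter measured by SteadyGlo luminescence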
[1] = Luminescence-based dose response cell-based high throughput screening assay for cytotoxic compounds using the IEC-6 intestinal epithelial cell line. [Related pubchem assays: 1858 (Summary AID.), 1825 (Counterscreen.), 1907 (Confirmation screen.)]; assay type: functional
[2] = target: T1, Sentrin-specific protease 7 (Homo sapiens, UniProt Q9BQF6); assay type: functional;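 note: Luminescence-based dose-response confirmation of ultra-high-throughput screening hits, measuring inhibition of SENP7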
T1 sequence (Q9BQF6 whole entry): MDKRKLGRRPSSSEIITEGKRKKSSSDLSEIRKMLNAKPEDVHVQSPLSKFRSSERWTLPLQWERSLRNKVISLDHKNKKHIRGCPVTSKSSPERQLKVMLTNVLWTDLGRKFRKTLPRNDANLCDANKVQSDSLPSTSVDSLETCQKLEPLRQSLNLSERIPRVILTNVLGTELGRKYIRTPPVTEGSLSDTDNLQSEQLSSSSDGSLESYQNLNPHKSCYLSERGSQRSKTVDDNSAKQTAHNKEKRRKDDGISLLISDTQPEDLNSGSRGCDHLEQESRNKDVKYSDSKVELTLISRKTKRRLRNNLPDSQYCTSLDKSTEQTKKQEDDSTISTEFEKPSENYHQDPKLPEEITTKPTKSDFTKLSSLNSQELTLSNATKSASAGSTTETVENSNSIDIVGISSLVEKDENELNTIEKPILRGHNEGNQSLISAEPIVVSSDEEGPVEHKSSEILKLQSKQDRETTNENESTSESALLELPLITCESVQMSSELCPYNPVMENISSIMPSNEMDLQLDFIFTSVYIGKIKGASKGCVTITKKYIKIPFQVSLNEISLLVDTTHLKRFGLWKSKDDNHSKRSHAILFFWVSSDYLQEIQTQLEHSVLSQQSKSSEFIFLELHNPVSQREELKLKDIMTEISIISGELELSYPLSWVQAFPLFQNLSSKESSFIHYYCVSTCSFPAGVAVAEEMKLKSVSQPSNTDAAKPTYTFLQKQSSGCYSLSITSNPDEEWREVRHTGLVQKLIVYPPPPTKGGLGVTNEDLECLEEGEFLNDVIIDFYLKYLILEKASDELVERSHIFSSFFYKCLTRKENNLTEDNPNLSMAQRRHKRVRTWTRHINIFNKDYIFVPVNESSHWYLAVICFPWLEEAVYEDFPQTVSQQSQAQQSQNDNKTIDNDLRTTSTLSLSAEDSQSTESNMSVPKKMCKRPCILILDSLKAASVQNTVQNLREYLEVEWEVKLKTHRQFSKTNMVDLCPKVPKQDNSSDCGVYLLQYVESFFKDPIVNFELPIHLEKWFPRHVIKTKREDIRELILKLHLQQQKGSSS

[3] = target: T2, Sentrin-specific protease 6 (Homo sapiens, UniProt Q9GZR1); assay type: functional;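 note: Luminescence-based dose-response confirmatory assay of SENP6 inhibition, following up an ultra-high-throughput screen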
T2 sequence (Q9GZR1 whole entry): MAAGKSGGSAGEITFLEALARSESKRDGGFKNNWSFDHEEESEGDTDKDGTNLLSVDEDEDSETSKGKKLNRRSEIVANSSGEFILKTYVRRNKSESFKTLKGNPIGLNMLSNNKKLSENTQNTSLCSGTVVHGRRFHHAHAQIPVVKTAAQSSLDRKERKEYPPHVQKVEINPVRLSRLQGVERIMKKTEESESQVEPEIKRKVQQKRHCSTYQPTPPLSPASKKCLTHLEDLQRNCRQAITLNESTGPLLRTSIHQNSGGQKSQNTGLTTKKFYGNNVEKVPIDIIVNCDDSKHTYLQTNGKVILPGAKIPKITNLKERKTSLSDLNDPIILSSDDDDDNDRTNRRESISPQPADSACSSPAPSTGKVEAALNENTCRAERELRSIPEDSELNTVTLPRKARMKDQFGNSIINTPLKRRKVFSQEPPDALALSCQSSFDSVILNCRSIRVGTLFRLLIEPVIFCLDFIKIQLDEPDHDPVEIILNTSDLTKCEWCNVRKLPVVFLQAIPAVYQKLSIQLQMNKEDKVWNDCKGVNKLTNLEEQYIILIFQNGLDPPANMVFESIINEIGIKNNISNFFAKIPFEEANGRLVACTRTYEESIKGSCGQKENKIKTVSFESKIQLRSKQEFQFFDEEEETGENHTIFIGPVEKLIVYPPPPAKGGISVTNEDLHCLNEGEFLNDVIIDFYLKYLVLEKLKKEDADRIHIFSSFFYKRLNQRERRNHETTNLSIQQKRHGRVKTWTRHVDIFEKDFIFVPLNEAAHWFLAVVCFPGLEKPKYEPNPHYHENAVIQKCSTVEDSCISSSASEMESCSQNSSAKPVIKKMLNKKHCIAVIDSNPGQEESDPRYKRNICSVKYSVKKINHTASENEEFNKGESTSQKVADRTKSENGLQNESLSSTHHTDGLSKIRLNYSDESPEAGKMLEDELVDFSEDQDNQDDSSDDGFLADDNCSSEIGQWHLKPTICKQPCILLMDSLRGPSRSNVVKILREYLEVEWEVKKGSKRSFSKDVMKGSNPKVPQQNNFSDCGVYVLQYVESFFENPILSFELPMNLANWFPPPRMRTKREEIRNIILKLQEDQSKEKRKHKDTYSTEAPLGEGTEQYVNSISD

Caspase-3 = target: T3, Caspase-3 (Homo sapiens, UniProt P42574); assay type: functional;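 note: Dose-response selectivity test against caspase-3 for candidate inhibitors of sentrin-specific proteases (SENPs)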
T3 sequence (P42574 whole entry): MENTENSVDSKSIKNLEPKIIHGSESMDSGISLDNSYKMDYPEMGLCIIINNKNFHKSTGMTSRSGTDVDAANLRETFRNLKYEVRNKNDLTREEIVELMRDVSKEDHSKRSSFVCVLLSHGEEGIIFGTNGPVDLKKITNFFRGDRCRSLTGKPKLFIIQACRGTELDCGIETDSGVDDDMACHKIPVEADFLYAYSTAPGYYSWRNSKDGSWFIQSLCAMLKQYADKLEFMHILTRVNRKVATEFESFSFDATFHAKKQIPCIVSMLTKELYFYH

HEK293 = experiment: inhibitors of LMP1-driven NF-kB reporter, dose response, cell-based, HEK293, luciferase, cherry-pick (AID 588343); assay type: functional; settings: Homo sapiens
[4] = cytotoxicity toward NIH3T3 fibroblasts, dose response, counter-screen, cell-based, ATP luminescence, mouse fibroblasts (AID 2010); assay type: functional;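 note: cells exposed to compound for about 90 hours before reading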
[5] = inhibitors of intracellular T. cruzi replication, confirmation, NIH3T3 host cells, beta-gal luminescence (AID 2044); assay type: functional, cell-based;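 note: intracellular parasites grown in NIH/3T3 mouse fibroblasts as host cells; luminescent beta-galactosidase reporter signal from transgenic T. cruzi replicating inside host cells; inhibitors lower the luminescence signal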
Nonstructural protein 1 = Nonstructural protein 1 (Influenza A virus, UniProt Q194T2); assay type: functional, Influenza A virus (A/California/07/2009(H1N1))
Chain of Nonstructural protein 1 (Q194T2 whole entry): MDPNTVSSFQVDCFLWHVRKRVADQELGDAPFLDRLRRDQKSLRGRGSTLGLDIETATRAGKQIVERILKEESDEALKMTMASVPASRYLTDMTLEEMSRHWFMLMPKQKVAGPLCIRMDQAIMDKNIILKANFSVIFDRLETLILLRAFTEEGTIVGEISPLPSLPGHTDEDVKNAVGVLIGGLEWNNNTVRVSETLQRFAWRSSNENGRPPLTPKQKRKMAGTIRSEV

Chain of Paired box protein Pax-8 (Q06710 whole entry): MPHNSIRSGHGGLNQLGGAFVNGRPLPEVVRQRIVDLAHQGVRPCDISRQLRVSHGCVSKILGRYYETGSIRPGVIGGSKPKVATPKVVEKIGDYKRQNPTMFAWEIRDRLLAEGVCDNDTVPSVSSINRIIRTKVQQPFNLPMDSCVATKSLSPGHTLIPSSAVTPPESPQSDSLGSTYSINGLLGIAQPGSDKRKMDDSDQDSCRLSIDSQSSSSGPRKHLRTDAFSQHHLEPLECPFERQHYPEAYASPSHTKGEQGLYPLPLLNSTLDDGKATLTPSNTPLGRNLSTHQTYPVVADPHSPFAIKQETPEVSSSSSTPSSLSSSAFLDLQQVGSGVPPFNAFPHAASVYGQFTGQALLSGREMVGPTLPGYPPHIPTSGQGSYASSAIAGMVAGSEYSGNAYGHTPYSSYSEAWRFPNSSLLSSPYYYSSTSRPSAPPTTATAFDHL

CCOC(=O)c1c(C)[nH]c2c1-c1ccccc1C(=O)C2=O
active: AC50 (Paired box protein Pax-8) 1.05 µM | IC50 [1] 0.421 µM

COc1ccc2c(c1)CCC(/C=N/c1ccc3c(c1)OCO3)=C2O
active: IC50 [2] 13.1 µM | IC50 [3] 8.46 µM | IC50 (Caspase-3) 65.5 µM

CC(=O)NC(c1ccc2ccccc2c1)c1ccc2cccnc2c1O (stereo not drawn)
active: AC50 (HEK293) 4.18 µM | AC50 (Paired box protein Pax-8) 1.89 µM | EC50 [4] 0.589 µM | EC50 [5] 0.306 µM | IC50 [1] 1.05 µM

O=C(c1ccccc1)c1coc2c1C(=O)c1ccccc1C2=O
active: IC50 [2] 12.7 µM | IC50 [3] 4.61 µM | IC50 (Caspase-3) 25.7 µM

CCc1ccc(Nc2n[n+](-c3ccccc3)c(-c3c(Cl)cccc3Cl)s2)cc1
active: AC50 (HEK293) 47.5 µM | EC50 [4] 5.53 µM | EC50 [5] 1.35 µM | IC50 (Nonstructural protein 1) 24.4 µM

CCOC(=O)C1=C(c2ccccc2)N=C(N)NC1c1ccc(OCc2ccc(Cl)cc2)c(OC)c1 (stereo not drawn)
active: IC50 (Nonstructural protein 1) 79.2 µM

From ChEMBL document CHEMBL1201862, “PubChem BioAssay data set” (2004)
